Experimental data published in US20090023775A1, “1-[2-(4-BENZYL-4-HYDROXY-PIPERIDIN-1 -YL )-ETHYL]-3-(2-METHYL-QUINOLIN- 4-YL)- UREA AS CRYSTALLINE SULFATE SALT” (Actelion Pharmaceuticals Ltd., priority 2004, published 2009).

Assays:
[1] = Dynamic vapor sorption (DVS), gravimetric measurement under controlled relative humidity; assay type: physicochemical
Procedure: X-ray diffraction patterns (XRD) were recorded on a Bruker D5000, using a Cu-Kalpha (1.5418 Å) source, a 40 kV -30 mA generator, in a range of 3 et 40° (2theta). DVS is performed as gravimetric measurement (10-30 mg of sample), at a given temperature, under controlled relative humidity. Measurements are performed on a SMS (Surface Measurement Systems) DVS 1000. First, the sample is dried (0% RH) under dry nitrogen at the experiment temperature. Then a cycle of relative humidity (RH) is applied to the sample (generally increase by steps e.g. 20, 40, 60 and 80% RH and decrease to 0% RH by the same steps). The duration of each step of RH is sufficient to reach a weight equilibrium.
Table 2 summarizes the results of two cycles (0 to 85% relative humidity) in a DVS measurement (40° C.) of 1-[2-(4-benzyl-4-hydroxy-piperidin-1-yl)-ethyl]-3-(2-methyl-quinolin-4-yl)-urea sulfate trihydrate described in Example 1.
Table 4 summarizes the results of three cycles (0 to 85% relative humidity) in a DVS measurement (25° C.) of 1-[2-(4-benzyl-4-hydroxy-piperidin-1-yl)-ethyl]-3-(2-methyl-quinolin-4-yl)-urea sulfate trihydrate described in Example 2.

urotensin II receptor = target: T1, urotensin II receptor (Homo sapiens, UniProt Q9UKP6); settings: Clozel et al., J. Pharmcol. Exp. Ther. 2004, 311, 204-212; cited from earlier work
T1 sequence (Q9UKP6 1-389): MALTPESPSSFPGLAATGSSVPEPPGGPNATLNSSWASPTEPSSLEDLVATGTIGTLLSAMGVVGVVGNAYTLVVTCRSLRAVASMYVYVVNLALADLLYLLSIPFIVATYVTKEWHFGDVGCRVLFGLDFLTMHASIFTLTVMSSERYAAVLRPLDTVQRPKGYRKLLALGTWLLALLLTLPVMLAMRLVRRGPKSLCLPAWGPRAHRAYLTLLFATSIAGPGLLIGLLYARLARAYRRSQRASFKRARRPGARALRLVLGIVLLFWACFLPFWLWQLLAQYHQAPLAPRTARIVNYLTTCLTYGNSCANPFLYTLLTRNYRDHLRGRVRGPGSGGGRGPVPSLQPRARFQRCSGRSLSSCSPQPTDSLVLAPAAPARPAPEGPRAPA

[2] = Behaviour of the free base at higher temperature and higher humidity; assay type: physicochemical
Excerpt: Therefore, the said compound of formula I as free base is not suitable as a pharmaceutical product since it is not easy to handle in pharmaceutical preparations. In addition, large scale production and storage of the said compound of formula I causes problems due to the properties mentioned above.

[3] = DVS 40° C., Cycle 1, target RH 0.0%
[4] = DVS 40° C., Cycle 1, target RH 20.0%
[5] = DVS 40° C., Cycle 1, target RH 40.0%
[6] = DVS 40° C., Cycle 1, target RH 60.0%
[7] = DVS 40° C., Cycle 1, target RH 85.0%
[8] = DVS 40° C., Cycle 2, target RH 0.0%
[9] = DVS 40° C., Cycle 2, target RH 20.0%
[10] = DVS 40° C., Cycle 2, target RH 40.0%
[11] = DVS 40° C., Cycle 2, target RH 60.0%
[12] = DVS 40° C., Cycle 2, target RH 85.0%
[13] = DVS 25° C., Cycle 1, target RH 0.0%
[14] = DVS 25° C., Cycle 1, target RH 20.0%
[15] = DVS 25° C., Cycle 1, target RH 40.0%
[16] = DVS 25° C., Cycle 1, target RH 60.0%
[17] = DVS 25° C., Cycle 1, target RH 85.0%
[18] = DVS 25° C., Cycle 2, target RH 0.0%
[19] = DVS 25° C., Cycle 2, target RH 20.0%
[20] = DVS 25° C., Cycle 2, target RH 40.0%
[21] = DVS 25° C., Cycle 2, target RH 60.0%
[22] = DVS 25° C., Cycle 2, target RH 85.0%
[23] = DVS 25° C., Cycle 3, target RH 0.0%
[24] = DVS 25° C., Cycle 3, target RH 85.0%
[25] = higher temperature and higher humidity

SMILES: Cc1cc(NC(=O)NCCN2CCC(O)(Cc3ccccc3)CC2)c2ccccc2n1.O.O.O.O=S(=O)(O)O [Example 1, 1-[2-(4-Benzyl-4-hydroxy-piperidin-1-yl)-ethyl]-3-(2-methyl-quinolin-4-yl)-urea Sulfate Trihydrate]
- Change In Mass (%) Desorption [1, 3]: −0.02%
- Change In Mass (%) Sorption [1, 3]: 0.00%
- Change In Mass (%) Desorption [1, 4]: 9.97%
- Change In Mass (%) Hysteresis [1, 4]: 0.26%
- Change In Mass (%) Sorption [1, 4]: 9.71%
- Change In Mass (%) Desorption [1, 5]: 10.26%
- Change In Mass (%) Hysteresis [1, 5]: 0.03%
- Change In Mass (%) Sorption [1, 5]: 10.23%
- Change In Mass (%) Desorption [1, 6]: 10.40%
- Change In Mass (%) Hysteresis [1, 6]: −0.02%
- Change In Mass (%) Sorption [1, 6]: 10.42%
- Change In Mass (%) Desorption [1, 7]: 10.68%
- Change In Mass (%) Sorption [1, 7]: 10.68%
- Change In Mass (%) Desorption [1, 8]: −0.02%
- Change In Mass (%) Sorption [1, 8]: −0.02%
- Change In Mass (%) Desorption [1, 9]: 9.98%
- Change In Mass (%) Hysteresis [1, 9]: 0.17%
- Change In Mass (%) Sorption [1, 9]: 9.81%
- Change In Mass (%) Desorption [1, 10]: 10.28%
- Change In Mass (%) Hysteresis [1, 10]: 0.02%
- Change In Mass (%) Sorption [1, 10]: 10.26%
- Change In Mass (%) Desorption [1, 11]: 10.42%
- Change In Mass (%) Hysteresis [1, 11]: 0.01%
- Change In Mass (%) Sorption [1, 11]: 10.42%
- Change In Mass (%) Desorption [1, 12]: 10.68%
- Change In Mass (%) Sorption [1, 12]: 10.68%

SMILES: Cc1cc(NC(=O)NCCN2CCC(O)(Cc3ccccc3)CC2)c2ccccc2n1.O.O.O.O=S(=O)(O)O [Example 2, 1-[2-(4-Benzyl-4-hydroxy-piperidin-1-yl)-ethyl]-3-(2-methyl-quinolin-4-yl)-urea Sulfate Trihydrate]
- Change In Mass (%) Desorption [1, 13]: −0.01%
- Change In Mass (%) Sorption [1, 13]: 0.00%
- Change In Mass (%) Desorption [1, 14]: 11.94%
- Change In Mass (%) Hysteresis [1, 14]: 0.57%
- Change In Mass (%) Sorption [1, 14]: 11.38%
- Change In Mass (%) Desorption [1, 15]: 12.31%
- Change In Mass (%) Hysteresis [1, 15]: 0.32%
- Change In Mass (%) Sorption [1, 15]: 12.00%
- Change In Mass (%) Desorption [1, 16]: 12.49%
- Change In Mass (%) Hysteresis [1, 16]: 0.08%
- Change In Mass (%) Sorption [1, 16]: 12.41%
- Change In Mass (%) Desorption [1, 17]: 12.70%
- Change In Mass (%) Sorption [1, 17]: 12.70%
- Change In Mass (%) Desorption [1, 18]: 0.00%
- Change In Mass (%) Sorption [1, 18]: −0.01%
- Change In Mass (%) Desorption [1, 19]: 11.95%
- Change In Mass (%) Hysteresis [1, 19]: 0.43%
- Change In Mass (%) Sorption [1, 19]: 11.52%
- Change In Mass (%) Desorption [1, 20]: 12.32%
- Change In Mass (%) Hysteresis [1, 20]: 0.25%
- Change In Mass (%) Sorption [1, 20]: 12.06%
- Change In Mass (%) Desorption [1, 21]: 12.49%
- Change In Mass (%) Hysteresis [1, 21]: 0.07%
- Change In Mass (%) Sorption [1, 21]: 12.41%
- Change In Mass (%) Desorption [1, 22]: 12.70%
- Change In Mass (%) Sorption [1, 22]: 12.70%
- Change In Mass (%) Desorption [1, 23]: 0.08%
- Change In Mass (%) Sorption [1, 23]: 0.00%
- Change In Mass (%) Sorption ([1]; DVS 25° C., Cycle 3, target RH 20.0%): 11.55%
- Change In Mass (%) Sorption ([1]; DVS 25° C., Cycle 3, target RH 40.0%): 12.07%
- Change In Mass (%) Sorption ([1]; DVS 25° C., Cycle 3, target RH 60.0%): 12.40%
- Change In Mass (%) Desorption [1, 24]: 12.69%
- Change In Mass (%) Sorption [1, 24]: 12.69%

SMILES: Cc1cc(NC(=O)NCCN2CCC(O)(Cc3ccccc3)CC2)c2ccccc2n1 [formula I, 1-[2-(4-Benzyl-4-hydroxy-piperidin-1-yl)-ethyl]-3-(2-methyl-quinolin-4-yl)-urea]
- urotensin II receptor antagonist activity (urotensin II receptor): potent urotensin II receptor antagonist
- hygroscopicity [2]: hygroscopic
- agglomeration [2, 25]: agglomerates to a substance cake
- colour stability [2, 25]: its colour changes at higher temperature and higher humidity
